Experimental data as given in US20210403874A1, “Method for Producing Stem/Precursor Cells, By Using Low Molecular Weight Compound, From Cells Derived From Endodermal Tissue or Organ” (Evia Life Sciences Inc., priority 2018, published 2021).

Test system: pancreatic progenitor cells
Assay: Induction of differentiation from pancreatic progenitor cells into insulin-producing cells (floating culture)
Format: cell-based
Conditions: floating culture 7 days in the presence of YAC together with ALK5 inhibitor II, versus YAC; FIG. 6
Method: Total RNA was isolated from the pancreatic exocrine cells and PSC cells using miRNeasy Mini Kit (QIAGEN). Reverse transcription reaction was carried out using High-Capacity cDNA Reverse Transcription Kit (Life Technologies) following the manufacturer's guideline. The resulting cDNA was used as a template to perform PCR with Platinum SYBR Green qPCR SuperMix UDG (Invitrogen). The expression level of the target gene was normalized with β-actin as the endogenous control.
The cells were fixed with 4% paraformaldehyde for 15 minutes. The resultant was incubated with a blocking solution (Blocking One) (Nacalai Tesque, Kyoto) at 4° C. for 30 minutes, and then the cells were incubated with primary antibody at room temperature for an hour or at 4° C. overnight. Then, Alexa Fluor 488- or Alexa Fluor 594-labeled secondary antibody (Life Technologies) was used to detect the primary antibody. The nuclei were co-stained with Hoechst 33342 (Dojindo).
The cells were suspended in 5% FBS-containing SHM+YAC (cell density: 1×10^4 to 1×10^6 cells/cm') and cultured on an ultra-low adsorption culture dish for 7 days. The medium was exchanged on the fourth day.

Cc1cccc(-c2[nH]ncc2-c2ccc3ncccc3n2)n1 [ALK5 inhibitor II]
mRNA expression of Insulin and GLUT2: further improvements
